Test results from ChEMBL document CHEMBL3217673, “Synthesis of cyanine dyes and investigation of their in vitro antiprotozoal activities” (Medchemcomm, 2012).

Tests used:
Plasmodium falciparum = assay: Antiprotozoal activity against chloroquine and pyrimethamine-resistant Plasmodium falciparum K1; type: functional, organism-based
[1] = Selectivity index, ratio of IC50 for rat L6 cells to IC50 for chloroquine and pyrimethamine-resistant Plasmodium falciparum K1; type: toxicity, cell-based; conditions: read-out: Ratio IC50
Trypanosoma cruzi = assay: Antiprotozoal activity against Trypanosoma cruzi Tulahuen C2C4; type: functional, organism-based
[2] = Selectivity index, ratio of IC50 for rat L6 cells to IC50 for Trypanosoma cruzi Tulahuen C2C4; type: toxicity, cell-based; conditions: read-out: Ratio IC50
[3] = tested on: Trypanosoma brucei rhodesiense; assay: Antiprotozoal activity against Trypanosoma brucei rhodesiense STIB900; type: functional, organism-based
[4] = Selectivity index, ratio of IC50 for rat L6 cells to IC50 for Trypanosoma brucei rhodesiense STIB900; type: toxicity, cell-based; conditions: read-out: Ratio IC50
Leishmania donovani = assay: Antiprotozoal activity against Leishmania donovani MHOMET-67/L82; type: functional, organism-based
[5] = Selectivity index, ratio of IC50 for rat L6 cells to IC50 for Leishmania donovani MHOMET-67/L82; type: toxicity, cell-based; conditions: read-out: Ratio IC50
L6 = assay: Cytotoxicity against rat L6 cells; type: cell-based

Row | SMILES | IC50 (Plasmodium falciparum) | selectivity ratio [1] | IC50 (Trypanosoma cruzi) | selectivity ratio [2] | IC50 [3] | selectivity ratio [4] | IC50 (Leishmania donovani) | selectivity ratio [5] | IC50 (L6)
1 | CN1/C(=C/C=C/C=C/c2sc3ccccc3[n+]2C)Sc2ccccc21 | 133 nM | 13.5 | 60 nM | 29.9 | 13 nM | 137 | 140 nM | 12.7 | 1790 nM
2 | CN1/C(=C/C=C/C=C/c2sc3ccc(Cl)cc3[n+]2C)Sc2ccc(Cl)cc21 | 63 nM | 13.9 | 2630 nM | 0.3 | 8 nM | 106 | 75 nM | 11.8 | 876 nM
3 | CN1/C(=C/C=C/C=C/c2sc3ccc(F)cc3[n+]2C)Sc2ccc(F)cc21 | 228 nM | 9.2 | 1960 nM | 1.1 | 2 nM | 1190 | 188 nM | 11.1 | 2080 nM
